“And” between values parts separate entries of the source, which are not always exact repeats. Equal values may be shown once. Inconclusive results and toxic doses are left out. No stated cut-off is given here; in the data, active means T/C of 150% or more; inactive means T/C below 125%.
Tested on: L1210 leukemia ip in BDF1 mice, survival T/C
Experiment: NCI In Vivo Anticancer Drug Screen. Data for tumor model L1210 Leukemia (intraperitoneal) in B6D2F1 (BDF1) mice
Settings: endpoint: mean survival time, higher = longer survival
Summary of the method: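 Antitumor effect is assessed in tumor-bearing animals. Survival in the compound arm is compared with a vehicle-dosed control arm and expressed as their quotient.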

[1] = dose: 100.0 mg/kg/injection, schedule: Q01DX001 (ip), vehicle: saline
[2] = dose: 200.0 mg/kg/injection, schedule: Q01DX001 (ip), vehicle: saline
[3] = dose: 100.0 mg/kg/injection, schedule: Q01DX001 (ip), vehicle: other
[4] = dose: 200.0 mg/kg/injection, schedule: Q01DX001 (ip), vehicle: other
[5] = dose: 400.0 mg/kg/injection, schedule: Q01DX001 (ip), vehicle: other
[6] = dose: 100.0 mg/kg/injection, schedule: Q04DX002 (ip), vehicle: Klucel (hydroxypropylcellulose) (HPC)
[7] = dose: 200.0 mg/kg/injection, schedule: Q04DX002 (ip), vehicle: Klucel (hydroxypropylcellulose) (HPC)
[8] = dose: 400.0 mg/kg/injection, schedule: Q04DX002 (ip), vehicle: Klucel (hydroxypropylcellulose) (HPC)
[9] = dose: 25.0 mg/kg/injection, schedule: Q01DX009 (ip), vehicle: saline
[10] = dose: 50.0 mg/kg/injection, schedule: Q01DX009 (ip), vehicle: saline
[11] = dose: 100.0 mg/kg/injection, schedule: Q04DX003 (ip), vehicle: saline
[12] = dose: 200.0 mg/kg/injection, schedule: Q04DX003 (ip), vehicle: saline
[13] = dose: 400.0 mg/kg/injection, schedule: Q01DX001 (ip), vehicle: saline
[14] = dose: 25.0 mg/kg/injection, schedule: Q04DX003 (ip), vehicle: saline
[15] = dose: 100.0 mg/kg/injection, schedule: Q01DX009 (ip), vehicle: Klucel (hydroxypropylcellulose) (HPC)
[16] = dose: 100.0 mg/kg/injection, schedule: Q04DX003 (ip), vehicle: Klucel (hydroxypropylcellulose) (HPC)
[17] = dose: 200.0 mg/kg/injection, schedule: Q04DX003 (ip), vehicle: Klucel (hydroxypropylcellulose) (HPC)
[18] = dose: 400.0 mg/kg/injection, schedule: Q04DX003 (ip), vehicle: Klucel (hydroxypropylcellulose) (HPC)
[19] = dose: 100.0 mg/kg/injection, schedule: Q01DX001 (ip), vehicle: carboxymethylcellulose (CMC)
[20] = dose: 200.0 mg/kg/injection, schedule: Q01DX001 (ip), vehicle: carboxymethylcellulose (CMC)
[21] = dose: 400.0 mg/kg/injection, schedule: Q01DX001 (ip), vehicle: carboxymethylcellulose (CMC)
[22] = dose: 50.0 mg/kg/injection, schedule: Q04DX003 (ip), vehicle: saline
[23] = dose: 100.0 mg/kg/injection, schedule: Q01DX009 (ip), vehicle: saline
[24] = dose: 100.0 mg/kg/injection, schedule: Q01DX001 (ip), vehicle: saline with Tween-80
[25] = dose: 200.0 mg/kg/injection, schedule: Q01DX001 (ip), vehicle: saline with Tween-80

Measured: T/C

CN(Cc1ccccc1)c1ccc(SC#N)cc1
inactive: [1] 98 % of control | [2] 104 % of control

O=C(OC1OCC(OCc2ccccc2)C(OCc2ccccc2)C1OCc1ccccc1)c1ccc([N+](=O)[O-])cc1 (stereo not drawn)
inactive: [3] 88 % of control | [4] 90 % of control | [5] 90 % of control

O=C(Cl)C12CC3CC(CC(C3)C1)C2
inactive: [6] 111 % of control | [7] 111 % of control | [8] 100 % of control

ClCC#Cc1ccccc1
inactive: dose: 12.0 mg/kg/injection, schedule: Q01DX009 (ip), vehicle: saline 100 % of control | [9] 100 % of control | [10] 101 % of control | [11] 103 % of control | [12] 92 % of control | dose: 400.0 mg/kg/injection, schedule: Q04DX003 (ip), vehicle: saline 91 % of control

O=[N+]([O-])c1cccc(/C=C/C=C/c2c(Cl)cccc2Cl)c1
inactive: [1] 91 % of control | [2] 94 % of control | [13] 100 % of control

CCN(CC)C(C)CN1c2ccccc2Sc2ccccc21 (stereo not drawn)
inactive: dose: 25.0 mg/kg/injection, schedule: Q01DX009 (ip), vehicle: Klucel (hydroxypropylcellulose) (HPC) 97 % of control | [14] 88 % of control | dose: 50.0 mg/kg/injection, schedule: Q01DX009 (ip), vehicle: Klucel (hydroxypropylcellulose) (HPC) 94 % of control | [15] 103 % of control | [11] 96 % of control | [12] 93 % of control

C/C=C(\C)COC(=O)c1ccc([N+](=O)[O-])cc1
inactive: [3] 104 % of control | [4] 98 % of control | [5] 93 % of control

CCOC(=O)CCC(NC(=O)c1c(Cl)cc(N(C)S(=O)(=O)c2ccc(C)cc2)cc1Cl)C(=O)OCC (stereo not drawn)
inactive: [16] 105 % of control | [17] 97 % of control | [18] 97 % of control

Cc1c2c(c(C)c3c4c(oc13)CCCC4)C=NCC2
inactive: [19] 95 % of control | [20] 92 % of control | [21] 92 % of control

COc1cccc(N=Nc2c(N)nc(N)[nH]c2=O)c1
inactive: [10] 90 % of control | [22] 101 % of control | [1] 104 % of control | [23] 92 % of control | [11] 98 % of control | [2] 107 % of control | dose: 200.0 mg/kg/injection, schedule: Q01DX009 (ip), vehicle: saline 95 % of control | [12] 102 % of control | [13] 104 % of control

O=[N+]([O-])c1ccc(C=Nc2cccc3ccccc23)s1
inactive: [16] 95 % of control | [17] 95 % of control | [18] 92 % of control

CC(C)(CO)C(O)C(=O)NN (stereo not drawn)
inactive: [1] 91 % of control | [2] 94 % of control

CC(C)(C)C1COP(=O)(C(C)(C)C)OC1 (stereo not drawn)
inactive: dose: 12.5 mg/kg/injection, schedule: Q04DX003 (ip), vehicle: Klucel (hydroxypropylcellulose) (HPC) 94 % of control | dose: 25.0 mg/kg/injection, schedule: Q04DX003 (ip), vehicle: Klucel (hydroxypropylcellulose) (HPC) 96 % of control

CCCCCCCCCCCCCCCCCCNC(=O)N(c1ccccc1)C1CCCCC1
inactive: [6] 101 % of control | [7] 93 % of control | [8] 87 % of control

C/C(C(=O)O)=C1\N=C(N)NC1=O
inactive: dose: 100.0 mg/kg/injection, schedule: Q01DX001 (ip), vehicle: Klucel (hydroxypropylcellulose) (HPC) 98 % of control | dose: 200.0 mg/kg/injection, schedule: Q01DX001 (ip), vehicle: Klucel (hydroxypropylcellulose) (HPC) 96 % of control | dose: 400.0 mg/kg/injection, schedule: Q01DX001 (ip), vehicle: Klucel (hydroxypropylcellulose) (HPC) 102 % of control

CC(=O)NNc1nc(C)cs1
inactive: dose: 100.0 mg/kg/injection, schedule: Q04DX003 (ip), vehicle: saline with Tween-80 97 % of control

CN=C(NC)c1cccc(NC(=O)c2cccc(C(=O)Nc3cccc(C(=NC)NC)c3)c2)c1
inactive: dose: 4.4 mg/kg/injection, schedule: Q01DX Z (ip), vehicle: carboxymethylcellulose (CMC) 96 % of control | dose: 6.6 mg/kg/injection, schedule: Q01DX Z (ip), vehicle: carboxymethylcellulose (CMC) 98 % of control | dose: 10.0 mg/kg/injection, schedule: Q01DX Z (ip), vehicle: carboxymethylcellulose (CMC) 96 % of control | dose: 15.0 mg/kg/injection, schedule: Q01DX Z (ip), vehicle: carboxymethylcellulose (CMC) 93 % of control and 98 % of control | dose: 22.0 mg/kg/injection, schedule: Q01DX Z (ip), vehicle: carboxymethylcellulose (CMC) 94 % of control

CCN(CC)CCOC(=O)N(c1ccccc1)c1ccccc1
inactive: dose: 6.25 mg/kg/injection, schedule: Q01DX009 (ip), vehicle: saline 103 % of control | dose: 12.5 mg/kg/injection, schedule: Q01DX009 (ip), vehicle: saline 106 % of control | [9] 104 % of control | [14] 92 % of control | [10] 95 % of control | [22] 103 % of control | [23] 100 % of control | [11] 103 % of control

CCOC(=O)CCC1(CN2c3ccccc3Sc3ccccc32)CCN(C)C1 (stereo not drawn)
inactive: [1] 87 % of control

CC(C)CP(=O)(CC(C)C)C1CCCC1
inactive: [24] 100 % of control | [25] 105 % of control

Cc1ccc(I)c([N+](=O)[O-])c1
inactive: dose: 50.0 mg/kg/injection, schedule: Q01DX001 (ip), vehicle: carboxymethylcellulose (CMC) 96 % of control | [19] 89 % of control | [20] 91 % of control | [21] 100 % of control

CN(C)c1ncnc2c1ncn2C1CCCO1 (stereo not drawn)
inactive: dose: 25.0 mg/kg/injection, schedule: Q01DX Z (ip), vehicle: methylcellulose (MC) 97 % of control | dose: 50.0 mg/kg/injection, schedule: Q01DX Z (ip), vehicle: methylcellulose (MC) 92 % of control

COc1ccc(C(=O)NC(=S)Nc2cccc(Cl)c2)cc1
inactive: [15] 91 % of control | [16] 94 % of control | dose: 200.0 mg/kg/injection, schedule: Q01DX009 (ip), vehicle: Klucel (hydroxypropylcellulose) (HPC) 98 % of control | [17] 91 % of control | dose: 400.0 mg/kg/injection, schedule: Q01DX009 (ip), vehicle: Klucel (hydroxypropylcellulose) (HPC) 87 % of control | [18] 93 % of control

CCOC(=O)c1cccc2nc3n(c12)CCC3
inactive: dose: 50.0 mg/kg/injection, schedule: Q01DX009 (ip), vehicle: saline with Tween-80 105 % of control | [24] 101 % of control | dose: 100.0 mg/kg/injection, schedule: Q01DX009 (ip), vehicle: saline with Tween-80 95 % of control | [25] 103 % of control | dose: 200.0 mg/kg/injection, schedule: Q01DX009 (ip), vehicle: saline with Tween-80 94 % of control

Reference: PubChem BioAssay AID248 (DTP/NCI, 2004)
